Data: patent EP4159870A1, “SYSTEM FOR THE DETECTION OF INHIBITORS IN MILK” (Analytik in Milch Produktions- und Vertriebs-GmbH, priority 2021, dated 2023)
In brackets after ≈: the same amount, converted by molar mass.

Key:
[1] = test system: G. stearothermophilus C953 (DSM 1550); experiment: BRT microbial test system with additives in the growth medium, G. stearothermophilus indicator strain; assay type: cell-based; settings: for longer incubation time until complete discoloration of the negative control: additive in growth medium: 200 µg/l CIP, 150 µg/l MOX, versus control plates
Procedure: (§1) The medium was prepared with one additive each. The evaluation of an increase in sensitivity and incubation time until complete discoloration of the negative control was performed by comparison with corresponding control medium, spore suspensions from the same batches and an equivalent number of spores.
(§2) Microbial test systems were prepared according to methods L 01.01-5 (January 2012) and L 01.00-11 (December 2002) ASU. 6.85 g BRT basis medium comprising about 1.5 g/l meat extract, about 3.0 g/l yeast extract, about 4.0 g/l casein peptone, about 6.0 g/l meat peptone, about 1.0 g/l D(+)-glucose, about 10 ml/l trimethoprim solution, and about 10 to […] dissolved in 250 ml distilled water and autoclaved.
(§3) The medium was tempered to 65 °C. 6.25 ml of sterile-filtered brilliant black solution (4 mg/ml, in dist. aqua) and medium additives and the spore suspension was added. The volume of spore suspension to be used was calculated on the basis of the desired spore number [cfu/ml] and the determined spore number of the spore suspension. The spore suspension was adjusted to a volume corresponding to 0.4 to 6 % v/v of the growth medium by dilution in Ringer's solution or by centrifugation (6,000 × g, RT, 10 min).
(§4) 100 µl growth medium per well was aliquoted into 96-well microtiter plates, the test system plates were solidified under the sterile bench for at least 30 min, the test system plates were sealed with adhesive foil and stored at 4 °C with the bottom surface facing upwards.

A. pallidus MHI 3391 [2] = experiment: BRT microbial test system with additives in the growth medium, A. pallidus indicator strain; assay type: cell-based; settings: for incubated longer than corresponding control plates: additive in growth medium: 100 µg/l CIP, 100 µg/l MOX; for Concentrations detected in spiked milk samples: growth medium with 100 µg/l MOX
Procedure: as §1, §2, §3, §4

[3] = test system: G. stearothermophilus C953 (DSM 1550); experiment: microbe, parasite or virus in culture; settings: Geobacillus stearothermophilus, DSM1550
A. pallidus MHI 3391 [4] = experiment: microbe, parasite or virus in culture
A. pallidus MHI 3391 [5] = experiment: FQ-BRT test system, detection of inhibitors in spiked milk samples; assay type: cell-based; settings: for detection at the detection level: incubation extended by two hours; for Detection at concentration: plates incubated for additional four hours relative to discoloration time of the negative control; for test result in the FQ-BRT: spiked milk samples at concentrations at the level of the respective MRL
Procedure: A. pallidus MHI 3391 was used as the indicator bacteria, endospores were used with a spore count of 1.56 × 10^7 cfu/ml growth medium, the growth medium used was based on BRT basis medium comprising a brilliant black concentration of 100 mg/l, 100 µg/l MOX and 8000 µg/l 8-hydroxyquinoline, adjusted to a pH of 8.5. In the following, this test system will be referred to as FQ-BRT. The incubation of the FQ-BRT was carried out in a water bath at 61 ± 1 °C.
The detection limits determined during the photometric and visual evaluation of test plates are shown in Figure 8 based on positive and negative control (CCβ A and CCβ B) derived from quality curves generated using the logistic regression model.
Discoloration of the negative control on test plates of the FQ-BRT using an UHT milk negative control was observed after an incubation of 302 ± 35 min.

[6] = milk samples, after heating for 20 min at 120 °C; cited from earlier work
A. pallidus MHI 3390 = experiment: BRT test system with Ca-DPA-activated spore suspensions; assay type: cell-based; settings: Ca-DPA-activated spores versus control plates
Procedure: (§5) 120 mM DPA stock solution was prepared in Tris-base and diluted in a 20-80 mM CaCl2 solution to obtain a Ca-DPA working solution before use. A spore suspension was adjusted to a specific spore count of 1.56 × 10^7 cfu/ml and a Ca-DPA concentration of 40 mM with Ca-DPA working solution and Ringer's solution. The spore suspension was incubated for 3 h in a thermal shaker at 55 °C and 350 rpm.

A. pallidus MHI 3391 [7] = experiment: as above; assay type: cell-based; settings: Ca-DPA-activated spores versus control plates
Procedure: as §5

[8] = test system: A. thermoaerophilus MHI 3397; experiment: as above; assay type: cell-based; settings: Ca-DPA-activated spores versus control plates
Procedure: as §5

[9] = test system: B. thermoamylovorans MHI 3373; experiment: as above; assay type: cell-based; settings: Ca-DPA-activated spores versus control plates without Ca-DPA activation
Procedure: as §5

[10] = test system: G. stearothermophilus C953 (DSM 1550); experiment: as above; assay type: cell-based; settings: Ca-DPA-activated spores versus control plates
Procedure: as §5

[11] = 8-hydroxyquinoline at 250, 500, 1000, 2000 and 4000 µg/l in basic growth medium

Oc1cccc2cccnc12 [8-hydroxyquinoline]
improvement in detection sensitivity [1, 11]: no improvement in detection sensitivity
reduction in incubation time ([1]; addition of 8-hydroxyquinoline): not observed
Incubation time reduced by (A. pallidus MHI 3391 [2]; 8000 µg/l 8-hydroxyquinoline added to growth medium comprising 100 µg/l MOX): 70 ± 16 min
improvement in detection sensitivity (A. pallidus MHI 3391 [2]; [11]): no improvement in detection sensitivity
Incubation time reduced by (A. pallidus MHI 3391 [2]; addition of 2000 µg/l 8-hydroxyquinoline to basic growth medium): 66 ± 0 min
Incubation time reduced by (A. pallidus MHI 3391 [2]; addition of 4000 µg/l 8-hydroxyquinoline to basic growth medium): 94 ± 7 min
decrease in incubation time (A. pallidus MHI 3391 [2]; combination of 8000 µg/l 8-hydroxyquinoline and 100 µg/l CIP): 17 ± 4 min
MIC [3]: 4 µg/mL (≈ 27.6 µM)
MIC (A. pallidus MHI 3391 [4]): 8 µg/mL (≈ 55.1 µM)

O=C(O)c1cn(C2CC2)c2cc(N3CCNCC3)c(F)cc2c1=O [CIP, ciprofloxacin]
effect of addition to growth medium on detection sensitivity ([1]; additive in growth medium: 50 µg/l CIP, 75 µg/l MOX, 100 µg/l LEV): not associated with an increased sensitivity
longer incubation time until complete discoloration of the negative control [1]: 32 ± 10 min
concentration detected in spiked milk samples ([1]; growth medium comprising 100 or 200 µg/l CIP, 100, 125 or 150 µg/l MOX, or 200 µg/l LEV): 200 µg/kg
incubated longer than corresponding control plates (A. pallidus MHI 3391 [2]): 17 ± 7 min
Concentrations detected in spiked milk samples (A. pallidus MHI 3391 [2]): 50 µg/kg
concentration detected (A. pallidus MHI 3391 [2]; growth medium with addition of 100 µg/l CIP): 100 µg/kg
detection at the detection level (A. pallidus MHI 3391 [5]): 100 µg/kg
Detection at concentration (A. pallidus MHI 3391 [5]): 50 µg/kg

CN1C[C@@H]2C[C@H]1CN2c1cc2c(cc1F)c(=O)c(C(=O)O)cn2C1CC1 [DAN, danofloxacin]
Concentrations detected in spiked milk samples (A. pallidus MHI 3391 [2]): 120 µg/kg

CCN1CCN(c2cc3c(cc2F)c(=O)c(C(=O)O)cn3C2CC2)CC1 [ENR, enrofloxacin]
Concentrations detected in spiked milk samples (A. pallidus MHI 3391 [2]): 100 µg/kg
detection at the detection level (A. pallidus MHI 3391 [5]): 100 µg/kg
Detection at concentration (A. pallidus MHI 3391 [5]): 100 µg/kg
degradation [6]: 5%

CN1CCN(c2c(F)cc3c(=O)c(C(=O)O)cn4c3c2OCN4C)CC1 [MAR, marbofloxacin]
Concentrations detected in spiked milk samples (A. pallidus MHI 3391 [2]): 75 µg/kg
detection sensitivity (A. pallidus MHI 3391 [5]; incubation extended by three hours): 100 µg/kg
detection at the detection level (A. pallidus MHI 3391 [5]): 75 µg/kg

COc1c(N2C[C@@H]3CCCN[C@@H]3C2)c(F)cc2c(=O)c(C(=O)O)cn(C3CC3)c12 [MOX, moxifloxacin]
longer incubation time until complete discoloration of the negative control [1]: 18 ± 0 min
incubated longer than corresponding control plates (A. pallidus MHI 3391 [2]): 62 ± 31 min

CCN1CCN(C(=O)N[C@@H](C(=O)N[C@@H]2C(=O)N3C(C(=O)O)=C(CSc4nnnn4C)CS[C@H]23)c2ccc(O)cc2)C(=O)C1=O [cefoperazone]
test result in the FQ-BRT (A. pallidus MHI 3391 [5]): intermediate test results

CO/N=C(\C(=O)N[C@@H]1C(=O)N2C(C(=O)[O-])=C(C[n+]3cccc4c3CCCC4)CS[C@H]12)c1csc(N)n1 [cefquinome]
test result in the FQ-BRT (A. pallidus MHI 3391 [5]): intermediate test results

Cc1onc(-c2c(Cl)cccc2Cl)c1C(=O)N[C@@H]1C(=O)N2[C@@H]1SC(C)(C)[C@@H]2C(=O)O [dicloxacillin]
test result in the FQ-BRT (A. pallidus MHI 3391 [5]): intermediate test results

CCOc1ccc2ccccc2c1C(=O)N[C@@H]1C(=O)N2[C@@H]1SC(C)(C)[C@@H]2C(=O)O [nafcillin]
test result in the FQ-BRT (A. pallidus MHI 3391 [5]): intermediate test results

Cc1onc(-c2ccccc2)c1C(=O)N[C@@H]1C(=O)N2[C@@H]1SC(C)(C)[C@@H]2C(=O)O [oxacillin]
test result in the FQ-BRT (A. pallidus MHI 3391 [5]): intermediate test results

CC[C@H]1OC(=O)C[C@@H](O)[C@H](C)[C@@H](O[C@@H]2O[C@H](C)[C@@H](O[C@H]3C[C@@](C)(O)[C@@H](O)[C@H](C)O3)[C@H](N(C)C)[C@H]2O)[C@@H](CC=O)C[C@@H](C)C(=O)/C=C/C(C)=C/[C@@H]1CO[C@@H]1O[C@H](C)[C@@H](O)[C@@H](OC)[C@H]1OC [tylosin]
test result in the FQ-BRT (A. pallidus MHI 3391 [5]): positive test result

calcium dipicolinic acid [Ca-DPA]
increase in incubation time, mean difference (A. pallidus MHI 3390): 139 ± 29 min
increase in incubation time, mean difference (A. pallidus MHI 3391 [7]): 164 ± 52 min
effect on incubation duration [8]: No effect on incubation duration
shorter incubation time [9]: 23 ± 2 min
increase in incubation time, mean difference [10]: 139 ± 42 min

gentamicin
test result in the FQ-BRT (A. pallidus MHI 3391 [5]): positive test result

neomycin
test result in the FQ-BRT (A. pallidus MHI 3391 [5]): positive test result
